{"source": "patent US20260285850A1", "about": "“SUBSTITUTED OXAZOLIDINONES AND IMIDAZOLINONES AS HERBICIDES” (FMC CORPORATION, priority 2023, published 2026)", "type_in_all_cases": "in vivo", "key": {"[1]": {"tested_on": "barnyardgrass (Echinochloa crus-galli)", "assay": "Test A preemergence soil spray, visual injury rating 0-100", "details": "10 days", "outline": "(§1)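 Compounds formulated in a non-phytotoxic solvent with surfactant are sprayed onto soil of freshly planted loam-sand pots ahead of emergence, or onto emerged plants 2-10 cm tall. After a 10-day greenhouse period, each species is scored visually for injury against untreated controls.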"}, "[2]": {"tested_on": "blackgrass (Alopecurus myosuroides)", "assay": "Test A preemergence soil spray, visual injury rating 0-100", "details": "10 days", "outline": "as §1"}, "[3]": {"tested_on": "corn (Zea mays)", "assay": "Test A preemergence soil spray, visual injury rating 0-100", "details": "10 days", "outline": "as §1"}, "[4]": {"tested_on": "green foxtail (Setaria viridis)", "assay": "Test A preemergence soil spray, visual injury rating 0-100", "details": "10 days", "outline": "as §1"}, "[5]": {"tested_on": "kochia (Bassia scoparia)", "assay": "Test A preemergence soil spray, visual injury rating 0-100", "details": "10 days", "outline": "as §1"}, "[6]": {"tested_on": "oat, wild (wild oat, Avena fatua)", "assay": "Test A preemergence soil spray, visual injury rating 0-100", "details": "10 days", "outline": "as §1"}, "[7]": {"tested_on": "palmer (palmer amaranth, palmer pigweed, Amaranthus palmeri)", "assay": "Test A preemergence soil spray, visual injury rating 0-100", "details": "10 days", "outline": "as §1"}, "[8]": {"tested_on": "ragweed (common ragweed, Ambrosia artemisiifolia)", "assay": "Test A preemergence soil spray, visual injury rating 0-100", "details": "10 days", "outline": "as §1"}, "[9]": {"tested_on": "ryegrass, Italian (italian ryegrass, Lolium multiflorum)", "assay": "Test A preemergence soil spray, visual injury rating 0-100", "details": "10 days", "outline": "as §1"}, "[10]": {"tested_on": "soybean (Glycine max)", "assay": "Test A preemergence soil spray, visual injury rating 0-100", "details": "10 days", "outline": "as §1"}, "[11]": {"tested_on": "wheat (Triticum aestivum)", "assay": "Test A preemergence soil spray, visual injury rating 0-100", "details": "10 days", "outline": "as §1"}, "[12]": {"tested_on": "barnyardgrass (Echinochloa crus-galli)", "assay": "Test A postemergence application, visual injury rating 0-100", "outline": "as §1"}, "[13]": {"tested_on": "blackgrass (Alopecurus myosuroides)", "assay": "Test A postemergence application, visual injury rating 0-100", "outline": "as §1"}, "[14]": {"tested_on": "corn (Zea mays)", "assay": "Test A postemergence application, visual injury rating 0-100", "outline": "as §1"}, "[15]": {"tested_on": "green foxtail (Setaria viridis)", "assay": "Test A postemergence application, visual injury rating 0-100", "outline": "as §1"}, "[16]": {"tested_on": "horseweed (Erigeron canadensis)", "assay": "Test A postemergence application, visual injury rating 0-100", "outline": "as §1"}, "[17]": {"tested_on": "kochia (Bassia scoparia)", "assay": "Test A postemergence application, visual injury rating 0-100", "outline": "as §1"}, "[18]": {"tested_on": "oat, wild (wild oat, Avena fatua)", "assay": "Test A postemergence application, visual injury rating 0-100", "outline": "as §1"}, "[19]": {"tested_on": "palmer (palmer amaranth, palmer pigweed, Amaranthus palmeri)", "assay": "Test A postemergence application, visual injury rating 0-100", "outline": "as §1"}, "[20]": {"tested_on": "ragweed (common ragweed, Ambrosia artemisiifolia)", "assay": "Test A postemergence application, visual injury rating 0-100", "outline": "as §1"}, "[21]": {"tested_on": "ryegrass, Italian (italian ryegrass, Lolium multiflorum)", "assay": "Test A postemergence application, visual injury rating 0-100", "outline": "as §1"}, "[22]": {"tested_on": "soybean (Glycine max)", "assay": "Test A postemergence application, visual injury rating 0-100", "outline": "as §1"}, "[23]": {"tested_on": "wheat (Triticum aestivum)", "assay": "Test A postemergence application, visual injury rating 0-100", "outline": "as §1"}, "[24]": {"tested_on": "barnyardgrass (Echinochloa crusgalli)", "assay": "Test B flooded paddy test, visual plant response rating 0-100", "details": "250 g ai/ha, Flood, applied to paddy water, evaluated after 13 days", "outline": "(§2)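 Paddy-water application: test compounds went directly into water flooded 3 cm above the soil surface, with plants at 2 leaves. After a 13-day greenhouse period, responses were judged by eye relative to controls; a dash marks an untested entry.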"}, "[25]": {"tested_on": "ducksalad (Heteranthera limosa)", "assay": "Test B flooded paddy test, visual plant response rating 0-100", "details": "250 g ai/ha, Flood, applied to paddy water, evaluated after 13 days", "outline": "as §2"}, "[26]": {"tested_on": "rice (Oryza sativa)", "assay": "Test B flooded paddy test, visual plant response rating 0-100", "details": "250 g ai/ha, Flood, applied to paddy water, evaluated after 13 days", "outline": "as §2"}, "[27]": {"tested_on": "sedge, umbrella (small-flower umbrella sedge, Cyperus difformis)", "assay": "Test B flooded paddy test, visual plant response rating 0-100", "details": "250 g ai/ha, Flood, applied to paddy water, evaluated after 13 days", "outline": "as §2"}, "[28]": {"details": "62 g ai/ha, 0 = no effect, 100 = complete control"}, "[29]": {"details": "62 g ai/ha, postemergence, 10 days, 0 = no effect, 100 = complete control"}, "[30]": {"details": "Postemergence, 16 g ai/ha, greenhouse 10 days, 0 no effect, 100 complete control"}}}
{"compound": "COC(=O)COC(=O)C1=CCC(NC(=O)C2(C)CN(c3cc(F)cc(F)c3)C(=O)O2)C1", "note": "(centres unmarked) [Compound 107]", "values": [{"measurement": "Barnyardgrass plant response rating", "setting": "[1]; 16 g ai/ha, 0 to 100 scale", "result": 0}, {"measurement": "Barnyardgrass plant response rating (0-100)", "setting": "[1]; [28]", "result": 10}, {"measurement": "Blackgrass plant response rating", "setting": "[2]; 16 g ai/ha, 0 to 100 scale", "result": 0}, {"measurement": "Blackgrass plant response rating (0-100)", "setting": "[2]; [28]", "result": 0}, {"measurement": "Corn plant response rating", "setting": "[3]; 16 g ai/ha, 0 to 100 scale", "result": 0}, {"measurement": "Corn plant response rating (0-100)", "setting": "[3]; [28]", "result": 0}, {"measurement": "Foxtail, Green plant response rating", "setting": "[4]; 16 g ai/ha, 0 to 100 scale", "result": 0}, {"measurement": "Foxtail, Green plant response rating (0-100)", "setting": "[4]; [28]", "result": 0}, {"measurement": "Kochia plant response rating", "setting": "[5]; 16 g ai/ha, 0 to 100 scale", "result": 0}, {"measurement": "Kochia plant response rating (0-100)", "setting": "[5]; [28]", "result": 0}, {"measurement": "Oat, Wild plant response rating", "setting": "[6]; 16 g ai/ha, 0 to 100 scale", "result": 0}, {"measurement": "Oat, Wild plant response rating (0-100)", "setting": "[6]; [28]", "result": 0}, {"measurement": "Pigweed, Palmer plant response rating", "setting": "[7]; 16 g ai/ha, 0 to 100 scale", "result": 0}, {"measurement": "Pigweed, Palmer plant response rating (0-100)", "setting": "[7]; [28]", "result": 0}, {"measurement": "Ragweed plant response rating", "setting": "[8]; 16 g ai/ha, 0 to 100 scale", "result": 0}, {"measurement": "Ragweed plant response rating (0-100)", "setting": "[8]; [28]", "result": 0}, {"measurement": "Ryegrass, Italian plant response rating", "setting": "[9]; 16 g ai/ha, 0 to 100 scale", "result": 10}, {"measurement": "Ryegrass, Italian plant response rating (0-100)", "setting": "[9]; [28]", "result": 40}, {"measurement": "Soybean plant response rating", "setting": "[10]; 16 g ai/ha, 0 to 100 scale", "result": 0}, {"measurement": "Soybean plant response rating (0-100)", "setting": "[10]; [28]", "result": 0}, {"measurement": "Wheat plant response rating", "setting": "[11]; 16 g ai/ha, 0 to 100 scale", "result": 0}, {"measurement": "Wheat plant response rating (0-100)", "setting": "[11]; [28]", "result": 10}, {"measurement": "Barnyardgrass plant response rating (0-100)", "setting": "[12]; [29]", "result": 80}, {"measurement": "Barnyardgrass plant response rating (0 to 100 scale)", "setting": "[12]; [30]", "result": 0}, {"measurement": "Blackgrass plant response rating (0-100)", "setting": "[13]; [29]", "result": 60}, {"measurement": "Blackgrass plant response rating (0 to 100 scale)", "setting": "[13]; [30]", "result": 0}, {"measurement": "Corn plant response rating (0-100)", "setting": "[14]; [29]", "result": 100}, {"measurement": "Corn plant response rating (0 to 100 scale)", "setting": "[14]; [30]", "result": 0}, {"measurement": "Foxtail, Green plant response rating (0-100)", "setting": "[15]; [29]", "result": 20}, {"measurement": "Foxtail, Green plant response rating (0 to 100 scale)", "setting": "[15]; [30]", "result": 0}, {"measurement": "Horseweed plant response rating (0-100)", "setting": "[16]; [29]", "result": 30}, {"measurement": "Horseweed plant response rating (0 to 100 scale)", "setting": "[16]; [30]", "result": 0}, {"measurement": "Kochia plant response rating (0-100)", "setting": "[17]; [29]", "result": 10}, {"measurement": "Kochia plant response rating (0 to 100 scale)", "setting": "[17]; [30]", "result": 0}, {"measurement": "Oat, Wild plant response rating (0-100)", "setting": "[18]; [29]", "result": 20}, {"measurement": "Oat, Wild plant response rating (0 to 100 scale)", "setting": "[18]; [30]", "result": 0}, {"measurement": "Pigweed, Palmer plant response rating (0-100)", "setting": "[19]; [29]", "result": 30}, {"measurement": "Pigweed, Palmer plant response rating (0 to 100 scale)", "setting": "[19]; [30]", "result": 0}, {"measurement": "Ragweed plant response rating (0-100)", "setting": "[20]; [29]", "result": 20}, {"measurement": "Ragweed plant response rating (0 to 100 scale)", "setting": "[20]; [30]", "result": 0}, {"measurement": "Ryegrass, Italian plant response rating (0-100)", "setting": "[21]; [29]", "result": 60}, {"measurement": "Ryegrass, Italian plant response rating (0 to 100 scale)", "setting": "[21]; [30]", "result": 0}, {"measurement": "Soybean plant response rating (0-100)", "setting": "[22]; [29]", "result": 40}, {"measurement": "Soybean plant response rating (0 to 100 scale)", "setting": "[22]; [30]", "result": 0}, {"measurement": "Wheat plant response rating (0-100)", "setting": "[23]; [29]", "result": 50}, {"measurement": "Wheat plant response rating (0 to 100 scale)", "setting": "[23]; [30]", "result": 0}, {"measurement": "Plant response rating, Barnyardgrass (0 to 100 scale, 0 is no effect and 100 is complete control)", "setting": "[24]", "result": 0}, {"measurement": "Plant response rating, Ducksalad (0 to 100 scale, 0 is no effect and 100 is complete control)", "setting": "[25]", "result": 0}, {"measurement": "Plant response rating, Rice (0 to 100 scale, 0 is no effect and 100 is complete control)", "setting": "[26]", "result": 0}, {"measurement": "Plant response rating, Sedge, Umbrella (0 to 100 scale, 0 is no effect and 100 is complete control)", "setting": "[27]", "result": 0}]}
